“Also recorded” adds a separate entry of the source. Structures can show the parent of a compound that is named as a salt.
Columns and labels:
[1] = system: Ad-MSC 3 cells; test: Apoptosis assay (Annexin V / TO-PRO-3 flow cytometry), Ad-MSC 3; type: cell-based, human; conditions: for apoptosis induction in MSCs (in words): several concentrations, data not shown; for type of cell death in MSCs (in words): high concentrations: doxorubicin 1 µM, nutlin-3 50 µM
Method: Apoptosis detection was based on the Annexin-V molecule binding to phosphatidylserine membrane molecules. Two cell lines were used to study apoptosis: Ad-MSC 3 cells were plated in a 5 × 10^4 cells/well concentration, while 4 × 10^4/well A431-mCh were seeded into each well in a 12-well tissue culture plate. […] At day 5, cells were trypsinized and centrifuged, while the supernatant was also collected and combined with the detached cells to include all already dead cells. Cells were washed twice with 500 µL of 1% BSA-PBS (bovine serum albumin dissolved in PBS, A8022, Sigma-Aldrich, St. Louis, MO, USA) solution and centrifuged at 400× G for 4 min. Cells were resuspended in 100 µL of 1× Annexin Binding Buffer (422201, Biolegend, San Diego, CA, USA), and 3 µL of Annexin V-Pacific Blue (A35122, Biolegend, San Diego, CA, USA) and 1 µL of TO-PRO-3 (R37170, Invitrogen, Waltham, MA, USA) were added to each sample. After 15 min of incubation, labeled and non-labeled samples were diluted 5-fold with 1× Annexin Binding Buffer and analyzed by Attune™ NxT flow cytometer.

[2] = system: 6 MSCs and 3 cancer cell lines; test: Cytotoxicity / cell viability assay (PrestoBlue), panel of MSCs and cancer cell lines; type: cell-based, human; conditions: for drug sensitivity of MSCs compared with cancer cells (in words): IC50 comparison
Method: (§1) Cells were seeded in a 96-well tissue culture plate in 100 µL of medium. Ad-MSC-GFP 1, iAd-MSC-GFP 1, Ad-MSC-GFP 2, Ad-MSC-GFP 3, BM-MSC, and HFF were seeded at 5 × 10^3/100 µL/well density and A431-mCh, MES-SA-mCh, and MCF-7-GFP at 4 × 10^3 cells/100 µL/well concentration in DMEM-F12 media. Different initial cell numbers were used due to different proliferation rates of different cell types. Cells were allowed to attach overnight at 37 °C and the day after were treated with the drugs using the indicated concentrations in 100 µL. Cell viability was measured by using PrestoBlue™ Cell Viability Reagent (A13232, Invitrogen, Waltham, MA, USA). To address metabolic differences between cancer cells and MSCs, the assay was optimized for each cell line, cells were incubated with 5 or 12.5% PrestoBlue™ Cell Viability Reagent diluted in PBS at 37 °C/5% CO2 for 1–1.5 h 5 days after the treatment. The fluorescence signal was measured by an EnSpire (Perkin Elmer, Waltham, MA, USA) fluorometer at 555 nm (excitation)/585 nm (emission) wavelength.
After the incubation period, the relative fluorescence data was measured. The data was normalized with the fluorescence of blank samples (cell culture media). A sigmoidal dose–response curve was fitted to the normalized measurement data and the logarithm of the concentration using the least square method. An inhibitory concentration of 50% (IC50 and log10) was interpolated from the fitted graph. […] In these cases, IC50 was calculated from the line connecting the measurement points. For repeated measurements, average and standard deviation was calculated based on the logarithm of the IC50 values.
To compare the mean IC50 values of six mesenchymal stem cell lines (Group-1) and three cancer cell lines (Group-2), first an F-test was performed to check equal variances between the groups, then two-sample unpaired t-tests were performed to calculate significance using Microsoft® Excel® 2016 (16.0.4266.1001).

[3] = system: Ad-MSC 3 cells; test: ROS induction (DCFH-DA), Ad-MSC 3; type: cell-based, human; conditions: 1 h
Method: (§2) Ad-MSC 3 and A431 cells were seeded in a 96-well tissue culture plate and incubated for 24 h as described above. Cells were washed twice with HBSS and incubated in 100 µL of DCFH-DA dye (R252-10, Dojindo) according to the manufacturer’s instructions. Cells were incubated for 30 min at 37 °C and washed twice with HBSS. […] Supernatant was removed, and the cells were washed with HBSS before imaging with the JuLI^TM Stage Cell History Recorder (NanoEnTek).

[4] = system: Ad-MSC-GFP 3 cells; test: γ-H2AX staining of DNA double-stranded breaks, Ad-MSC-GFP 3; type: cell-based, human; conditions: 120 h; IC50 concentrations of A431 (2 µM cisplatin, 0.1 µM doxorubicin, 30 µM nutlin-3)
Method: (§3) Ad-MSC-GFP 3 cells were seeded into glass-bottomed chamber slides (ibidi, Germany, Grafelfing, Germany) at 1 × 10^4/well and A431-mCh at 1.6 × 10^4/well density. […] Cells in all chambers were fixed with 4% PFA for 15 min and washed twice with PBS. Blocking solution (0.5% BSA-PBS, 0.1% TritonX-100, 5% goat serum, and 1% fish gelatin) was used for 1 h. γ-H2A.X primary antibody (MA1-2022, Invitrogen, United States) was diluted in blocking solution at 1:500 concentration and incubated overnight at 4 °C. Afterwards, the cells were washed with PBS twice and goat anti-mouse A633 secondary antibody (A21052, abcam, Cambridge, UK) was diluted at 1:250 concentration in blocking solution. Nuclei was stained with a Hoechst-33342 (23491-52-3, Dojindo, Kumamoto, Japan) at 1:1000 concentration.
(§4) To quantify DNA damage based on immunofluorescence against γ-H2AX, a semi-automated image analysis pipeline was set up using CellProfiler v4.1.3 [10]. First, images showing DAPI-stained nuclei were pre-processed by intensity normalization and Gaussian filtering (ϭ = 20 px) to suppress noise and remove artifacts caused by debris. Nuclei candidates were identified by threshold-based segmentation; false candidates were removed from the analysis manually. Using the remaining nuclei regions as masks, pixel intensities were measured on the γ-H2AX channel, thus, excluding non-nuclei signals.

[5] = system: A431-mCh cells; test: Live cell imaging, confluency, A431-mCh; type: cell-based, human; conditions: 120 h
Method: (§5) JuLI™ Stage Cell History Recorder was used to monitor a five-day cytotoxicity assay on Ad-MSC-GFP 3 and A431-mCh cell lines. […] Images were taken every 105 min for 120 h at 10× objective magnification. Live cell microscopy studies were evaluated using the “Growth curve” function of the JuLI STAT image analysis software (v2.0.1.0).

[6] = system: Ad-MSC 3 cells; test: Cell proliferation (CytoTell) and light microscopy after treatment, Ad-MSC 3; type: cell-based, human; conditions: 0.1 µM
Method: (§6) Cell division was analyzed by the fluorescent CytoTell Green dye (AAT Bioquest, Sunnyvale, CA, USA) according to the manufacturer’s guidelines. Briefly, 3 × 10^5 cells were centrifuged and stained with 2 µL of CytoTell dye diluted in 1 mL of serum-free DMEM and incubated at 37 °C for 30 min. After centrifugation, half of the cells (1.5 × 10^5) were plated into T25 cell culture flasks in 5 mL of media and analyzed at day 5. Day 1 samples were co-stained with Zombie Violet dye (423113, Biolegend) to exclude dead cells and analyzed by Attune™ NxT flow cytometry. Brightfield images were taken with the Olympus IX51 microscope. The scale bar is the same in every image.

[7] = system: Ad-MSC-GFP 3 cells; test: Cytotoxicity / cell viability assay (PrestoBlue) on Ad-MSC-GFP 3; type: cell-based, human; conditions: Homo sapiens, 120 h; Ad-MSC-GFP 3 / Ad-MSC 3, 5 days
Method: as §1
(§7) After the incubation period, the relative fluorescence data was measured. The data was normalized with the fluorescence of blank samples (cell culture media). […] In these cases, IC50 was calculated from the line connecting the measurement points. For repeated measurements, average and standard deviation was calculated based on the logarithm of the IC50 values.

[8] = system: A431-mCh cells; test: Cytotoxicity / cell viability assay (PrestoBlue) on A431; type: cell-based, human
Method: as §1, §7

[9] = system: Ad-MSC-GFP 3 cells; test: Live cell imaging, confluency, Ad-MSC-GFP 3; type: cell-based, human
Method: as §5

[10] = system: A431-mCh cells; test: γ-H2AX staining of DNA double-stranded breaks, A431-mCh; type: cell-based, human; conditions: 120 h; IC50 concentrations of A431 (2 µM cisplatin, 0.1 µM doxorubicin, 30 µM nutlin-3)
Method: as §3, §4

[11] = system: A431 cells; test: ROS induction (DCFH-DA), A431; type: cell-based, human; conditions: 1 h
Method: as §2

[12] = system: A431 cells; test: Cell proliferation (CytoTell) and light microscopy after treatment, A431; type: cell-based, human; conditions: 0.1 µM
Method: as §6

[13] = system: A431 cells; test: Apoptosis assay (Annexin V / TO-PRO-3 flow cytometry), A431; conditions: 120 h
[14] = different concentrations incl. higher

OO [H2O2]
apoptosis induction in MSCs (in words) [1]: not able to induce apoptosis

CCc1c2c(nc3ccc(OC(=O)N4CCC(N5CCCCC5)CC4)cc13)-c1cc3c(c(=O)n1C2)COC(=O)[C@]3(O)CC [irinotecan, irinotecan hydrochloride]
drug sensitivity of MSCs compared with cancer cells (in words) ([2]; 5 days treatment): required significantly higher concentrations to kill MSCs than cancer cells

CN[C@@H]1C[C@H]2O[C@@](C)([C@@H]1OC)n1c3ccccc3c3c4c(c5c6ccccc6n2c5c31)C(=O)NC4 [staurosporine]
apoptosis induction in MSCs (in words) [1]: not able to induce apoptosis

CC[C@]1(O)C[C@@H]2CN(CCc3c([nH]c4ccccc34)[C@@](C(=O)OC)(c3cc4c(cc3OC)N(C)[C@H]3[C@@](O)(C(=O)OC)[C@H](OC(C)=O)[C@]5(CC)C=CCN6CC[C@]43[C@@H]65)C2)C1 [vinblastine]
drug sensitivity of MSCs compared with cancer cells (in words) ([2]; 5 days treatment): required significantly higher concentrations to kill MSCs than cancer cells
IC50 values in MSCs relative to cancer cells ([2]; 5 days treatment, MSCs higher than cancer cells): 1000 fold

COc1cccc2c1C(=O)c1c(O)c3c(c(O)c1C2=O)C[C@@](O)(C(=O)CO)C[C@@H]3O[C@H]1C[C@H](N)[C@H](O)[C@H](C)O1 [doxorubicin, doxorubicin hydrochloride]
ROS induction [3, 14]: did not induce ROS
DNA double-stranded breaks (γ-H2AX) [4]: no DNA break was detected
number of viable colonies in live cell imaging ([5]; IC50 of A431-mCh and 10-fold higher concentration): significantly reduced the number of viable colonies
growth kinetics in live cell imaging ([5]; concentration 10-fold lower than A431-mCh IC50): did not alter growth kinetics
apoptosis (in words) ([1]; 0.1 µM, 120 h): apoptosis was not detected
apoptosis / cell death (in words) ([1]; concentration increased 10-fold (1 µM), 120 h): only late necrosis was found
type of cell death in MSCs (in words) [1]: necrotic cell death
cell number (light microscopy) [6]: reduced cell number
proliferation (CytoTell) ([6]; five-day treatment): decreased proliferation
IC50 [7]: 0.1 µM
IC50 ([8]; Homo sapiens, A-431, 120 h, A431, 5 days): 0.1 µM
decrease of cultures in live cell imaging ([9]; 120 h of treatment): no significant decrease
drug sensitivity of MSCs compared with cancer cells (in words) ([2]; 5 days treatment): equally toxic to MSCs and cancer cells
DNA damage (γ-H2AX) [10]: massive DNA damage
ROS induction [11, 14]: did not induce ROS
cell killing (light microscopy) [12]: killed most of the cancer cells
proliferation (CytoTell) ([12]; five-day treatment): decreased proliferation
apoptosis (in words) ([13]; 0.1 µM): apoptosis in almost all A431 cells

COc1ccc(C2=N[C@@H](c3ccc(Cl)cc3)[C@@H](c3ccc(Cl)cc3)N2C(=O)N2CCNC(=O)C2)c(OC(C)C)c1 [nutlin-3]
ROS induction ([3]; 30 µM): considerable amount of ROS
DNA double-stranded breaks (γ-H2AX) [4]: no DNA break was detected
effect on cultures in live cell imaging ([5]; either concentration, p53 mutant): no effect
apoptosis (in words) ([1]; 30 µM, 120 h): only a slight increase in the number of apoptotic MSCs
type of cell death in MSCs (in words) [1]: necrotic cell death
concentration at which significant drops in confluency were seen, as multiple of Ad-MSC-GFP 3 IC50 ([9]; 120 h live cell imaging): 3 fold
DNA damage (γ-H2AX) [10]: massive DNA damage
ROS induction ([11]; 30 µM): considerable amount of ROS
apoptosis (in words) ([13]; 30 µM): modest apoptotic response

O=C1c2c(O)ccc(O)c2C(=O)c2c(NCCNCCO)ccc(NCCNCCO)c21 [mitoxantrone]
apoptosis induction in MSCs (in words) [1]: not able to induce apoptosis
drug sensitivity of MSCs compared with cancer cells (in words) ([2]; 5 days treatment): required significantly higher concentrations to kill MSCs than cancer cells

Cn1nnc2c(C(N)=O)ncn2c1=O [temozolomide]
IC50 ([2]; Homo sapiens, all cell lines of the screening, read-out: toxic concentration in the IC50 screening (not toxic even at)): > 1000 µM

c1ccc(CN(CCN(Cc2ccccn2)Cc2ccccn2)Cc2ccccn2)nc1 [TPEN]
drug sensitivity of MSCs compared with cancer cells (in words) ([2]; 5 days treatment): equally toxic to both MSCs and cancer cells

CN(Cc1cnc2nc(N)nc(N)c2n1)c1ccc(C(=O)N[C@@H](CCC(=O)O)C(=O)O)cc1 [methotrexate]
sensitivity of A431 cells (in words) ([8]; compared with the other cell lines): extreme sensitivity; also recorded: hypersensitive
drug sensitivity of MSCs compared with cancer cells (in words) ([2]; 5 days treatment): only toxic to A431-mCherry cells

[Cl][Co][Cl] [cobalt chloride]
apoptosis induction in MSCs (in words) [1]: not able to induce apoptosis

Source: article PMC9563435, “Comparison of Different Clinical Chemotherapeutical Agents’ Toxicity and Cell Response on Mesenchymal Stem Cells and Cancer Cells” (Cells, 2022)
